Test systems include OVCAR-5; A498; NCI/ADR-RES; OVCAR-4; M14; MCF7; KM12; NCI-H226; SF-268; SK-OV-3; NCI-H23; UO-31; OVCAR-8; A549; Hs-578T; IGROV-1; RXF 393; HL-60; T47D.
Holding throughout (assay): inhibition of tumour cell growth, NCI panel, 48 h

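Briefly, cells in 96-well plates were exposed to five compound concentrations for 48 h, and endpoints were estimated by linear interpolation. At the GI50, growth is halved.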 Activity calls are given as the source filed them. Rule as the data show it: active = GI50 up to about 1.1 µM and inactive = higher.

On to `O/N=C/[C@H]1COC2(CCCCC2)O1`, for which the GI50 in the test on OVCAR-5, in the test with A498, in the test with NCI/ADR-RES, with OVCAR-4, in the test with M14 and with MCF7 was > 100 µM (inactive) throughout. The GI50 in the test with KM12, in the test on NCI-H226, with SF-268, in the test on SK-OV-3, in the test on NCI-H23 and in the test with UO-31 was > 100 µM (inactive) in each case. Moreover, the GI50 in the test with OVCAR-8, with A549, in the test with Hs-578T and with IGROV-1 was > 100 µM (inactive) throughout.

Take `CCOC(=O)C1(C)CCCc2sc(N)c(C#N)c21` (centres undefined): the GI50 in the test on OVCAR-5, with A498, with M14, with MCF7, in the test with KM12 and in the test on NCI-H226 was > 100 µM (inactive) throughout. In addition, the GI50 in the test on NCI-H23, with RXF 393, in the test with UO-31, with OVCAR-8, in the test on HL-60 and in the test on A549 was > 100 µM (inactive) in each case. The GI50 in the test on Hs-578T and with IGROV-1 was > 100 µM (inactive) in each case.

In the case of `CCOC(=O)C1=C(C)OC(=O)[C@@]2(OC)C=C(Cl)[C@@]12C`, the GI50 in the test on OVCAR-5, with A498, in the test with NCI/ADR-RES, in the test on OVCAR-4, with M14 and with MCF7 was > 100 µM (inactive) in each case. The GI50 in the test on KM12, in the test with NCI-H226, in the test on SF-268, in the test with SK-OV-3, in the test with NCI-H23 and in the test with RXF 393 was > 100 µM (inactive) in each case. Further, the GI50 with UO-31 is > 100 µM (inactive); in the test on OVCAR-8 it was > 100 µM (inactive); in the test on HL-60, 33 µM (inactive); in the test on A549, > 100 µM (inactive); in the test on Hs-578T, > 100 µM (inactive); in the test with IGROV-1, > 100 µM (inactive).

As to `O=C(O)C1CCCCN1CCc1c[nH]c2ccccc12` (centres undefined), the GI50 with OVCAR-5, with NCI/ADR-RES, with OVCAR-4, in the test with M14, in the test on MCF7 and with KM12 was > 100 µM (inactive) each time. The GI50 in the test on NCI-H226, in the test with SF-268, with SK-OV-3, in the test on T47D, with NCI-H23 and with RXF 393 was > 100 µM (inactive) in each case. Further, the GI50 with OVCAR-8, in the test on HL-60, with A549 and in the test on IGROV-1 was > 100 µM (inactive) each time.

Regarding `CN1CCCC2[C@@H]3CCC4=C(O)C(=O)CC[C@]4(C)C3CC[C@@]21C` (some centres undefined), the GI50 with OVCAR-5, in the test with A498, with OVCAR-4, with M14, in the test with KM12 and in the test on NCI-H226 was > 100 µM (inactive) each time. In addition, the GI50 in the test with SF-268, in the test on SK-OV-3, in the test on NCI-H23, in the test on RXF 393, in the test with UO-31 and in the test on OVCAR-8 was > 100 µM (inactive) each time. Besides, the GI50 in the test on HL-60, with A549 and with IGROV-1 was > 100 µM (inactive) each time.

On to `O=S(=O)(O)C1=C2Sc3ccccc3N=C2c2ccccc2C1`, for which the GI50 in the test on OVCAR-5 is 20.2 µM (inactive); in the test with A498, 18.6 µM (inactive); in the test with OVCAR-4 it was 16.8 µM (inactive); with M14 it was 12.7 µM (inactive); in the test on KM12, 15.8 µM (inactive); in the test with NCI-H226, 20.3 µM (inactive). Moreover, the GI50 in the test on SF-268 was 14.1 µM (inactive); in the test on SK-OV-3 it was 29.2 µM (inactive); in the test with NCI-H23 it was 16.4 µM (inactive); with RXF 393 it was 19.5 µM (inactive); in the test with UO-31, 19.4 µM (inactive); in the test with OVCAR-8, 16.9 µM (inactive). Besides, the GI50 in the test with HL-60 was 3.76 µM (inactive); with A549, 16.2 µM (inactive); in the test on IGROV-1 it was 14.3 µM (inactive).

As for `CO[C@H]1C[C@H](n2cc(C)c(=O)[nH]c2=O)O[C@@H]1CO`, the GI50 with OVCAR-5, in the test on A498, in the test with NCI/ADR-RES, in the test on OVCAR-4, in the test on M14 and with MCF7 was > 100 µM (inactive) throughout. Also, the GI50 with KM12, with NCI-H226, with SF-268, with SK-OV-3, with NCI-H23 and in the test with RXF 393 was > 100 µM (inactive) throughout. Besides, the GI50 with UO-31, in the test with OVCAR-8, with HL-60, with A549, in the test with Hs-578T and in the test with IGROV-1 was > 100 µM (inactive) in each case.

Regarding `O=C(/C=C/c1ccccc1)Oc1ccc(C(=O)/C=C/c2ccc(Cl)cc2)cc1`, the GI50 was > 100 µM (inactive) with OVCAR-5; > 100 µM (inactive) with A498; 46.5 µM (inactive) in the test with NCI/ADR-RES; > 100 µM (inactive) in the test on M14; 36.4 µM (inactive) in the test with MCF7; 33.8 µM (inactive) with KM12. Further, the GI50 in the test with SF-268 was 82.2 µM (inactive); in the test with SK-OV-3, > 100 µM (inactive); with T47D, 66.7 µM (inactive); in the test on RXF 393, 97.3 µM (inactive); with UO-31, 63.8 µM (inactive); in the test with OVCAR-8 it was 42.3 µM (inactive). Besides, the figures for the GI50 with HL-60, in the test with A549 and in the test with IGROV-1 were 71.1 µM (inactive), > 100 µM (inactive) and > 100 µM (inactive), respectively.

As to `CC(C)C[C@H](NC(=O)[C@H](Cc1ccccc1)NC(=O)c1cnccn1)B(O)O` [BORTEZOMIB], the GI50 with OVCAR-5 was < 0.01 µM (active); with A498, < 0.01 µM (active); in the test on NCI/ADR-RES, 0.0141 µM (active); in the test on OVCAR-4, < 0.01 µM (active); with M14 it was < 0.01 µM (active); in the test with MCF7, < 0.01 µM (active). Also, the GI50 with KM12 is < 0.01 µM (active); in the test with SF-268, < 0.01 µM (active); with SK-OV-3, 0.0329 µM (active); with T47D, < 0.01 µM (active); with NCI-H23, < 0.01 µM (active); in the test on RXF 393, < 0.01 µM (active). Moreover, the GI50 in the test on UO-31, with OVCAR-8, in the test with HL-60, in the test with A549 and with IGROV-1 was < 0.01 µM (active) in each case.

The values are drawn from ChEMBL document CHEMBL1201862, “PubChem BioAssay data set” (2004).
